# “Also recorded” adds a separate entry of the source. Marks after values point to notes of the source that are not given here.
# Tests used:
# [1] = test system: patients with PFIC3 or PFIC6; experiment: PEDFIC 2: efficacy and safety in patients with PFIC3 or PFIC6; format: in vivo, human
# Text: In PEDFIC 2, eligible patients are enrolled into one of 2 cohorts, based on the following criteria: Cohort 1 includes pediatric patients with PFIC1 or PFIC2 from PEDFIC 1 and cohort 2 includes patients of any age with any PFIC type; these are newly enrolled patients. In both cohorts, eligible patients are those with genetically confirmed PFIC, elevated serum bile acids (≥100 μmol/L), and significant pruritus (i.e., itching or scratching score of ≥2 per patient/caregiver report using the PRUCISION instrument). PEDFIC 2 includes a 72-week treatment period in which all patients receive oral, once-daily odevixibat 120 μg/kg.
# Change from baseline in serum bile acids, pruritus, hepatic biochemical parameters, growth, and sleep; serum bile acid response (i.e., serum bile acids reduced ≥70% or levels ≤70 μmol/L); proportion of positive pruritus assessments (PPAs) at the patient level (i.e., pruritus score ≤1 or a ≥1-point drop from baseline); and treatment-emergent adverse events (TEAEs). Patient pruritus and sleep were evaluated twice daily by caregivers using the validated PRUCISION scale; pruritus responses range from 0 to 4, with higher scores indicating worse symptom.
# [2] = test system: children with PFIC1 or PFIC2; experiment: PEDFIC 1: safety (treatment-emergent adverse events)
# Text: The primary safety analysis for PEDFIC 1 was based on the incidence of treatment-emergent adverse events (TEAEs). TEAEs were categorized by causality, severity, and seriousness for odevixibat and placebo. Other safety assessments included physical examinations, vital signs, laboratory tests, and abdominal ultrasounds (liver and spleen).
# Secondary endpoints, exploratory endpoints, subgroup analyses, and safety data were summarized descriptively. Adverse events (AEs) were coded using Medical Dictionary for Regulatory Activities version 23.0.
# [3] = patient with PFIC6, N=1, oral once-daily 120 μg/kg
# [4] = patients with PFIC3, N=4, oral once-daily 120 μg/kg
# [5] = PEDFIC 1, 120 μg/kg/day, n = 19
smiles,measurement,setting,value
"CCCCC1(CCCC)CN(c2ccccc2)c2cc(SC)c(OCC(=O)N[C@@H](C(=O)N[C@@H](CC)C(=O)O)c3ccc(O)cc3)cc2S(=O)(=O)N1 [Odevixibat, 1,1-dioxo-3,3-dibutyl-5-phenyl-7-methylthio-8-(N-{(R)-α-[N-((S)-1-carboxypropyl)carbamoyl]-4-hydroxybenzyl}carbamoylmethoxy)-2,3,4,5-tetrahydro-1,2,5-benzothiadiazepine]","Height Z score, change from baseline to week 36",[1]; [3],0.1
same,"Pruritus score, change from baseline to weeks 34-36",[1]; [3],−1.8^a
same,"Serum ALT, change from baseline to week 36",[1]; [3],89 U/L
same,"Serum bile acids, change from baseline to week 36",[1]; [3],-78 µmol/L
same,"Total bilirubin, change from baseline to week 36",[1]; [3],-83 µmol/L
same,"Weight Z score, change from baseline to week 36",[1]; [3],0.5
same,"% of days needing help falling asleep, mean (SE) change from baseline to weeks 34-36",[1]; [4],−29 (24)^a %
same,"% of days needing soothing, mean (SE) change from baseline to weeks 34-36",[1]; [4],−28 (21)^a %
same,"% of days sleeping with caregiver, mean (SE) change from baseline to weeks 34-36",[1]; [4],−27 (22)^a %
same,"% of days with bleeding associated with scratching, mean (SE) change from baseline to weeks 34-36",[1]; [4],6 (6)^a %
same,"Height Z score, mean (SE) change from baseline to week 36",[1]; [4],0.2 (0.2)
same,"Pruritus score, mean (SE) change from baseline to weeks 34-36",[1]; [4],−1.6 (0.4)^a
same,"Serum ALT, mean (SE) change from baseline to week 36",[1]; [4],67 (21) U/L
same,"Serum bile acids, mean (SE) change from baseline to week 36",[1]; [4],−91 (37) μmol/L
same,"Total bilirubin, mean (SE) change from baseline to week 36",[1]; [4],18 (13) μmol/L
same,"Weight Z score, mean (SE) change from baseline to week 36",[1]; [4],0.1 (0.4)
same,patients who experienced any TEAE,[1]; patients with PFIC3 or PFIC6,5 of 6
same,"serious TEAEs, TEAEs leading to discontinuation, or deaths",[1]; patients with PFIC3 or PFIC6,"no serious TEAEs, TEAEs leading to discontinuation, or deaths"
same,tolerability,"[1]; patients with PFIC3 or PFIC6, up to the data cutoff in PEDFIC 2",generally well tolerated
same,positive pruritus assessments (PPAs),"[1]; weeks 0-22, 1 additional patient with PFIC3",99%
same,positive pruritus assessments (PPAs),"[1]; weeks 0-36, 5 patients with available data (4 with PFIC3, 1 with PFIC6)",≥ 85%
same,"Any TEAE, patients","[2]; PEDFIC 1, 40 μg/kg/day, n = 23",19 (82.6) n (%)
same,"Drug-related TEAE, patients","[2]; PEDFIC 1, 40 μg/kg/day, n = 23",7 (30.4) n (%)
same,"Drug-related TEAE: ALT increased, patients","[2]; PEDFIC 1, 40 μg/kg/day, n = 23",2 (8.7) n (%)
same,"Drug-related TEAE: AST increased, patients","[2]; PEDFIC 1, 40 μg/kg/day, n = 23",2 (8.7) n (%)
same,"Drug-related TEAE: Blood bilirubin increased, patients","[2]; PEDFIC 1, 40 μg/kg/day, n = 23",2 (8.7) n (%)
same,"Drug-related TEAE: Diarrhea/frequent bowel movements, patients","[2]; PEDFIC 1, 40 μg/kg/day, n = 23",2 (8.7) n (%)
same,"Liver-related TEAEs, patients","[2]; PEDFIC 1, 40 μg/kg/day, n = 23",5 (21.7) n (%)
same,"Mild TEAE, patients","[2]; PEDFIC 1, 40 μg/kg/day, n = 23",11 (47.8) n (%)
same,"Moderate TEAE, patients","[2]; PEDFIC 1, 40 μg/kg/day, n = 23",7 (30.4) n (%)
same,"Serious TEAEs, patients","[2]; PEDFIC 1, 40 μg/kg/day, n = 23",0 n (%)
same,"Severe TEAE, patients","[2]; PEDFIC 1, 40 μg/kg/day, n = 23",1 (4.3) n (%)
same,"TEAEs leading to discontinuation, patients","[2]; PEDFIC 1, 40 μg/kg/day, n = 23",0 n (%)
same,"Any TEAE, patients",[2]; [5],16 (84.2) n (%)
same,"Drug-related TEAE, patients",[2]; [5],7 (36.8) n (%)
same,"Drug-related TEAE: ALT increased, patients",[2]; [5],2 (10.5) n (%)
same,"Drug-related TEAE: AST increased, patients",[2]; [5],1 (5.3) n (%)
same,"Drug-related TEAE: Blood bilirubin increased, patients",[2]; [5],2 (10.5) n (%)
same,"Drug-related TEAE: Diarrhea/frequent bowel movements, patients",[2]; [5],2 (10.5) n (%)
same,"Liver-related TEAEs, patients",[2]; [5],6 (31.6) n (%)
same,"Mild TEAE, patients",[2]; [5],8 (42.1) n (%)
same,"Moderate TEAE, patients",[2]; [5],6 (31.6) n (%)
same,"Serious TEAEs, patients",[2]; [5],3 (15.8) n (%)
same,"Severe TEAE, patients",[2]; [5],2 (10.5) n (%)
same,"TEAEs leading to discontinuation, patients",[2]; [5],1 (5.3) n (%)
same,"deaths, treatment-related serious AEs, TEAEs related to liver decompensation","[2]; PEDFIC 1, 24 weeks","No deaths, treatment-related serious AEs, or TEAEs related to liver decompensation occurred; also recorded: no deaths or treatment-related serious adverse events"
same,tolerability,"[2]; PEDFIC 1, 40 and 120 μg/kg/day over 24 weeks",well tolerated
same,patients with at least one TEAE,"[2]; PEDFIC 1, all doses (35 of 42 patients)",83%
same,"Any TEAE, patients","[2]; PEDFIC 1, all doses, n = 42",35 (83.3) n (%)
same,"Drug-related TEAE, patients","[2]; PEDFIC 1, all doses, n = 42",14 (33.3) n (%)
same,"Drug-related TEAE: ALT increased, patients","[2]; PEDFIC 1, all doses, n = 42",4 (9.5) n (%)
same,"Drug-related TEAE: AST increased, patients","[2]; PEDFIC 1, all doses, n = 42",3 (7.1) n (%)
same,"Drug-related TEAE: Blood bilirubin increased, patients","[2]; PEDFIC 1, all doses, n = 42",4 (9.5) n (%)
same,"Drug-related TEAE: Diarrhea/frequent bowel movements, patients","[2]; PEDFIC 1, all doses, n = 42",4 (9.5) n (%)
same,"Liver-related TEAEs, patients","[2]; PEDFIC 1, all doses, n = 42",11 (26.2) n (%)
same,"Mild TEAE, patients","[2]; PEDFIC 1, all doses, n = 42",19 (45.2) n (%)
same,"Moderate TEAE, patients","[2]; PEDFIC 1, all doses, n = 42",13 (31.0) n (%)
same,"Serious TEAEs, patients","[2]; PEDFIC 1, all doses, n = 42",3 (7.1) n (%)
same,"Severe TEAE, patients","[2]; PEDFIC 1, all doses, n = 42",3 (7.1) n (%)
same,"TEAEs leading to discontinuation, patients","[2]; PEDFIC 1, all doses, n = 42",1 (2.4) n (%)
same,TEAE vomiting,"[2]; PEDFIC 1, all doses, placebo 0%",17%
same,TEAE ALT increase,"[2]; PEDFIC 1, all doses, placebo 5%",14%
same,TEAE serum bilirubin increase,"[2]; PEDFIC 1, all doses, placebo 10%",12%
same,TEAE upper respiratory tract infection,"[2]; PEDFIC 1, all doses, placebo 15%",19%
same,TEAEs considered related to study drug by the investigator,"[2]; PEDFIC 1, all doses, placebo 15.0%",33.3%
same,TEAE fever,"[2]; PEDFIC 1, all doses, placebo 25%",29%
same,treatment-related AEs of diarrhea or frequent bowel movement,"[2]; PEDFIC 1, odevixibat-treated patients",9.5%
